Values quoted from earlier work in patent publication US6692771B2, “Emulsions as solid dosage forms for oral administration” (CIMA Labs Inc., priority 2001, dated 2004).

Conditions: orally administered dose; average value given in parentheses

Oc1ccc2c3c1O[C@H]1[C@@H](O)CC[C@@]4(O)[C@@H](C2)N(CC2CCC2)CC[C@]314 [nalbuphine]
average bioavailability: approximately 17%

methyldopa
average bioavailability: 25%
